Experimental data reported in PMC11730591 (Scientific Reports, 2025).
“Also recorded” adds a separate entry of the source.

Experiments:
α-glucosidase [1] = target: T1, α-glucosidase (Saccharomyces cerevisiae, UniProt P53341); experiment: In vitro α-glucosidase inhibition assay; assay type: biochemical; conditions: for α-Glucosidase inhibitory activity described in words: SAR discussion
α-glucosidase [2] = target: T1, α-glucosidase; experiment: Enzyme kinetic studies; assay type: biochemical

T1 sequence (P53341 whole entry): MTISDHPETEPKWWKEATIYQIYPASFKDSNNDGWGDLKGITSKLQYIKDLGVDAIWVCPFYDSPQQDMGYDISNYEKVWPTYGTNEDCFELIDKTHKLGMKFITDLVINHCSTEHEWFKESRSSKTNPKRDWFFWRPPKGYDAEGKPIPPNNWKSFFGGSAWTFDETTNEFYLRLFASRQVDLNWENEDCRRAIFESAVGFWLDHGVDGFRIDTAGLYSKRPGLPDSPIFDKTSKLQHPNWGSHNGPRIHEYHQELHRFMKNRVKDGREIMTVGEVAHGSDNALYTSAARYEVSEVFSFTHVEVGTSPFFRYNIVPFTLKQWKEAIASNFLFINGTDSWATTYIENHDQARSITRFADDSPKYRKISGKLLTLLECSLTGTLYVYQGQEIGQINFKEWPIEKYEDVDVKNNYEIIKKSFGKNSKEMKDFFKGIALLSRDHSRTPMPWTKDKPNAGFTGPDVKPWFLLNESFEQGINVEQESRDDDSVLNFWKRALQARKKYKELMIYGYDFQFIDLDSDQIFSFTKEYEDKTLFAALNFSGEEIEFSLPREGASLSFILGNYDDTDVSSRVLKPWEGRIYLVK

SMILES	α-Glucosidase inhibitory activity described in words (α-glucosidase [1])	Ki (α-glucosidase [2]) [µM]	Type of inhibition (Lineweaver-Burk plot) (α-glucosidase [2]; Km increased, Vmax unchanged with increasing inhibitor concentration)	Fold improvement in activity compared to acarbose (α-glucosidase [1]; versus acarbose as positive control) [fold]
Cc1ccccc1NC(=O)CN1CCN(c2nc3ccccc3cc2/C=N/NC(N)=S)CC1 [Compound 7h, (E)-2-(4-(3-((2-carbamothioylhydrazono)methyl)quinolin-2-yl)piperazin-1-yl)-N-(o-tolyl)acetamide]	diminished activity	–	–	–
COc1ccc(OC)c(NC(=O)CN2CCN(c3nc4ccccc4cc3/C=N/NC(N)=S)CC2)c1 [Compound 7j, (E)-2-(4-(3-((2-carbamothioylhydrazono)methyl)quinolin-2-yl)piperazin-1-yl)-N-(2,5-dimethoxyphenyl)acetamide]	–	32	competitive inhibitor; also recorded: competitive inhibition	15
COc1ccc(CNC(=O)CN2CCN(c3nc4ccccc4cc3/C=N/NC(N)=S)CC2)cc1 [Compound 7n, (E)-2-(4-(3-((2-carbamothioylhydrazono)methyl)quinolin-2-yl)piperazin-1-yl)-N-(4-methoxybenzyl)acetamide]	poor activity	–	–	–
